From patent US8673913B2, “SHP-2 phosphatase inhibitor” (Case Western Reserve University, priority 2009, dated 2014)
pIC50: −log10 of the molar value.

Assays:
[1] = biological target: T1, GST-CD45 cytoplasmic domain (Homo sapiens, UniProt P08575); experiment: in vitro phosphatase assay, CD45; format: biochemical; settings: read-out: IC50 PTPRC (CD45)
T1 construct: GST-CD45 cytoplasmic domain; purchased Biomol International, L.P. (Plymouth Meeting, Pa.)
T1 sequence (P08575 599-1306 limits assumed): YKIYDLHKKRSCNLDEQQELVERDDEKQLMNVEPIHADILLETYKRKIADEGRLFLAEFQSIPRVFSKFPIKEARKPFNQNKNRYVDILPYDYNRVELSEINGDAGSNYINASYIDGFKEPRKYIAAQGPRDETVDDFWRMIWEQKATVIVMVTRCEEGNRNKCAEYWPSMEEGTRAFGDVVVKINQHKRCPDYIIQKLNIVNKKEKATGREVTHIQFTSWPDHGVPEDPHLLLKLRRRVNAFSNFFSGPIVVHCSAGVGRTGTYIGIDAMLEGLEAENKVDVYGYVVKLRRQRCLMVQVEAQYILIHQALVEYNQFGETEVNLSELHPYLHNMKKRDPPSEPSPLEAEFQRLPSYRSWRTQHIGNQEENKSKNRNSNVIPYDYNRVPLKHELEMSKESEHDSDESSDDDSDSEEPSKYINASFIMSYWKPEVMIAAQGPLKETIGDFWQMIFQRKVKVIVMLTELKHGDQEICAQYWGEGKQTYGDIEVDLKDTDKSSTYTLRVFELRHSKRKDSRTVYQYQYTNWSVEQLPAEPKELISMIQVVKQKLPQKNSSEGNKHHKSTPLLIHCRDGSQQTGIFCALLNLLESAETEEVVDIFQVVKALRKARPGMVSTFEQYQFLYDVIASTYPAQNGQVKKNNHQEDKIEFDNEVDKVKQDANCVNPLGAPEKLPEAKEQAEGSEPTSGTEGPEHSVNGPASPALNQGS
Procedure: (§1) Candidate compounds were screened using the in vitro protein tyrosine phosphatase (PTP) assay kit (Sigma, St. Lois, Mo.). […] The assay determines free phosphate generated by dephosphorylation of the PTP substrate using the Malachite Green reagent. Briefly, 0.5 μg of GST-SHP-2 PTP was incubated in 40 μL assay buffer (25 mM Tris-HCl, PH7.4, 50 mM NaCl, 5 mM DTT, and 2.5 mM EDTA) with test compounds at various concentrations or DMSO at room temperature for 30 min. The PTP substrate was then added to a final concentration of 0.2 mM. The system was incubated at 30° C. for 30 min. Finally, 50 μl of Malachite Green solution was added and OD620 was measured after 5 min. In the phosphatase assays for SHP-1, CD45, TC-PTP, PTP-MEG2 (PTPN9), and LAR (PTPRF), procedures were similar, with the exception that GST-SHP-1, GST-CD45 cytoplasmic domain, GST-TC-PTP, GST-PTP-MEG2 PTP domain, and GST-LAR PTP domain purchased from Biomol International, L.P. (Plymouth Meeting, Pa.) were used instead as the enzymes.

[2] = biological target: T2, GST-LAR PTP domain (PTPRF) (Homo sapiens, UniProt P10586); experiment: in vitro phosphatase assay, LAR; format: biochemical
T2 construct: GST-LAR PTP domain purchased from Biomol International; purchased Biomol International, L.P. (Plymouth Meeting, Pa.)
T2 sequence (P10586 1352-1607 limits assumed): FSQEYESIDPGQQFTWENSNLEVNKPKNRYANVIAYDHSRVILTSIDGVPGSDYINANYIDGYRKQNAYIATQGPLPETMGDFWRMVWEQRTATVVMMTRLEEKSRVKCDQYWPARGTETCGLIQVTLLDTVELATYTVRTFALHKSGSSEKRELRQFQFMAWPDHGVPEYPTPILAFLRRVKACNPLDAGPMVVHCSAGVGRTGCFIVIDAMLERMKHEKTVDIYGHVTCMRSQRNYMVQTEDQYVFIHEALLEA
Procedure: as §1

[3] = biological target: T3, GST-PTP-MEG2 PTP domain (PTPN9) (Homo sapiens, UniProt P43378); experiment: in vitro phosphatase assay, PTP-MEG2; format: biochemical
T3 construct: GST-PTP-MEG2 PTP domain; purchased Biomol International, L.P. (Plymouth Meeting, Pa.)
T3 sequence (P43378 303-574 limits assumed): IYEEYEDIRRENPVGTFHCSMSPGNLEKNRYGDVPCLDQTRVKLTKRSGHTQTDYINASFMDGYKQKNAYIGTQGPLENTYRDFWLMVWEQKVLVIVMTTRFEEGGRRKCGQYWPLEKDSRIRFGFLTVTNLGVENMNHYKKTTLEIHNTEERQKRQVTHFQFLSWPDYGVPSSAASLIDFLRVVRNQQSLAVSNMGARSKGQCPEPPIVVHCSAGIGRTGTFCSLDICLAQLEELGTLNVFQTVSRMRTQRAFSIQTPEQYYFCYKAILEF
Procedure: as §1

[4] = test system: JMML patient bone marrow cells; experiment: JMML bone marrow cells cultured with GM-CSF (MTS), FIG. 15; format: cell-based; settings: DMEM with GM-CSF
Procedure: FIG. 15 illustrates inhibition of growth factor-independent colony formation of myeloid progenitors with SHP-2 activating mutation E76K by active compounds. JMML patient bone marrow cells were harvested from mutant mice with SHP-2 E76K mutation and were cultured in DMEM medium supplemented GM-CSF. DMSO was included at negative controls. Cell numbers were determined using the MTS assay. Shown are the results of a representative compound #324.

[5] = test system: H661 (SHP-2 N58S) and H596 lung cancer cells; experiment: cell proliferation assay, lung cancer cells (MTS); format: cell-based; settings: indicated concentrations 48 hours; 10 μM time course
Procedure: To test the effects of the active compounds on SHP-2-mediated cellular proliferation, Ba/F3, an IL-3 dependent hematopoietic cell line, mouse embryonic fibroblasts (MEFs), and H661 lung cancer cell line with SHP-2 activating mutation N58S were used for the assays. Cells were seeded into 96-well plates (2×10^4 cells/well) in the RPMI-1640 (for Ba/F3 cells) or DMEM (for MEFs and H661 cells) medium supplemented with 10% fetal bovine serum (FBS) and test compounds at various concentrations. For the Ba/F3 cell assay, recombinant mouse IL-3 (1 ng/mL) was included in the culture medium. Two days later, cell number was determined using the MTS cell proliferation kit (Promega Life Science, Madison, Wis.).
FIG. 14 illustrates A). […] H661 and H596 cells were cultured in DMEM medium supplemented with active compounds at the indicated concentrations. DMSO was included at negative controls. Cell numbers were determined 48 hours later using the MTS assay. Shown are the results of a representative compound #324. B). […] H661 and H596 cells were cultured in DMEM medium supplemented with active compounds (10 μM) for the indicated periods of time. DMSO was included at negative controls. Cell numbers were determined using the MTS assay. Shown are the results of a representative compound #324.

`Cc1cc(C)c2[nH]c3nc(SCC(=O)Nc4cccc5ccccc45)nnc3c2c1` [#324] was tested, and the pIC50 [1] was 3.74, the pIC50 [2] was 3.84 and the pIC50 [3] was 3.75. The “growth of JMML bone marrow cells with GM-CSF (FIG. 15)” value [4] was “inhibition” and the “sensitivity of H661 (N58S) cells versus H596 cells” value [5] was “more sensitive”.
